Measured values reported in PubChem BioAssay (NCI).
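Interpolation was linear, between the two tested concentrations surrounding the appropriate level; five concentrations were tested over 48 hours in 96-well plates. At the GI50, growth is halved. TGI is the concentration that stops growth completely.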

Key:
Experiment in all cases: NCI tumour cell line growth inhibition, 48 h
DU-145 prostate = system: DU-145 prostate
MDA-MB-435 = system: MDA-MB-435
PC-3 prostate = system: PC-3 prostate
T-47D breast = system: T-47D breast
DLD-1 colon = system: DLD-1 colon
DMS 114 small cell lung = system: DMS 114 small cell lung
LXFL 529 NSCLC = system: LXFL 529 NSCLC
SNB-78 CNS = system: SNB-78 CNS
M19-MEL melanoma = system: M19-MEL melanoma

SMILES	GI50 (DU-145 prostate) [nM]	TGI (DU-145 prostate) [µM]	GI50 (MDA-MB-435) [µM]	TGI (MDA-MB-435) [µM]	GI50 (PC-3 prostate) [µM]	TGI (PC-3 prostate) [µM]	GI50 (T-47D breast) [nM]	TGI (T-47D breast) [µM]	TGI (DLD-1 colon) [µM]	TGI (DMS 114 small cell lung) [µM]	TGI (LXFL 529 NSCLC) [µM]	TGI (SNB-78 CNS) [µM]	TGI (M19-MEL melanoma) [µM]
C[C@]12CC[C@@H]3c4ccc(Oc5nc(N6CC6)nc(N6CC6)n5)cc4CC[C@H]3[C@@H]1CCC2=O	1820	6.46	5.43	22	3.46	21.8	3550	19.4					
Nc1c(-c2ccc(Br)cc2)[n+]([O-])c2ccccc2[n+]1[O-]									> 100	> 100	> 100	> 100	
CCOC(=O)NC(=O)c1cn(CCCOC(=O)NCCCCCCNC(=O)OCCCn2c(=O)c(C(=O)NC(=O)OCC)cn(C)c2=O)c(=O)n(C)c1=O									> 100	> 100	> 100		> 100
C=C1C(=O)O[C@H]2[C@H]1CC/C(COC(=O)/C=C\C(=O)NCc1ccc(Cn3c(=O)sn(-c4ccc(C#N)cc4)c3=O)cc1)=C\CC[C@@]1(C)O[C@@H]21	725	1.4	0.744	1.5	0.611	1.44	836	2.18					
COc1cc([C@@H]2c3cc4c(cc3C(O[C@@H]3O[C@@H]5CO[C@@H](c6cccs6)OC5[C@H](O)[C@H]3O)C3COC(=O)[C@@H]32)OCO4)cc(OC)c1O (stereo not given in full)	45.9	0.369	0.261	2.12	0.51	32.9	20.7	0.434					
CN(C)C(=S)/N=c1\ss/c(=N\C(=S)N(C)C)n1-c1ccc2c(c1)OCO2										> 100			
NC(N)=NC(N)=Nc1cc2ccccc2c2ccccc12	11900	25	12.4	25.4	7.51	24.9	11000	29.3					
Cc1[nH]c(N=Nc2ccccc2)nc1N=Nc1ccccc1	3170	> 34.9	3.35	17.9	4.99	> 51.6	2770	> 46.8					
CCOC(=O)[C@H]1Nc2ccc(C)cc2C2c3ccccc3CC21 (stereo not given in full)									> 100	> 100	> 100	> 100	> 100
CC(C)CSc1nc(Nc2ccccc2)c(C#N)c(-c2ccc(F)cc2)n1	11000	27.7	13	42.2	18.1	81.2	2970	32.8					
CCCCC/C=C/C/C=C/CCCCCCCC1=NC(C)(C)CN1C(C)C	1730	3.11	1.5	2.82	1.7	3.41	1970	3.98					
COc1cc(Cn2c(-c3ccccc3)cc3c2-c2oncc2CC3)cc(OC)c1OC	1730	> 100	0.248	0.905	3.62	> 100	1070	81.2					
Cc1cc(C)cc(Nc2cc(C)nc3nc(C(F)(F)F)nn23)c1	> 100000	> 100	> 100	> 100	> 100	> 100	> 100000	> 100					
COc1ccc(C2CC(=O)c3c(OC)cc(OC)cc3O2)cc1 (stereo not given)	> 100000	> 100	> 100	> 100	> 100	> 100	> 100000	> 100					
COc1ccc(-c2cc3c(nn2)-c2ccccc2C3=O)cc1	> 100000	> 100	> 100	> 100	> 100	> 100	> 100000	> 100					
Cn1cc(C2=C(c3cn(C)c4c(N)cccc34)C(=O)NC2=O)c2ccccc21	2480	> 25	0.0872	> 25	1.37	> 25	1310	11.9					
Cc1cccc(C(C)(C)C)c1NC(=O)CCc1n[nH]c(=S)o1									> 100	> 100	> 100	> 100	> 100
COc1ccc(S(=O)(=O)N(Cc2ccc3c(n2)C=CC(C)(C)O3)C2CCC2)cc1OC	< 10	3.45	< 0.01	0.422	< 0.01	2.37	< 10	0.231					
Cn1cc(-c2csc(-c3cccc(F)c3)n2)c2cccnc21	18200	32.1	14.4	33.1	16.2	39.5	14400	51.7					
COc1cccc(NCc2nnc(Nc3ccc(Cl)cc3)c3ccccc23)c1	2400	6.52	0.739	4.38	1.19	9.33	649	6.56					
Cc1c2c(nn1-c1ccc(S(=O)(=O)/N=C3\SCC(=O)N3C(=O)c3ccccc3)cc1)-c1ccccc1CC2	38600	> 100	26.1	60.8	42.1	> 100							
N#C/C(C(=S)Nc1ccccc1)=C1/NN=C2c3ccccc3C(=O)NN21	28800	> 100	7.8	24.3			36700	> 100					
O=C(CCCSc1nc(-c2ccc(Cl)cc2)cc(-c2ccc(Cl)cc2)n1)NO	665	8.94	2.81	17	1.21	16.1	1370	16.7					
COc1cccc(N=Cc2c3ccccc3c(=O)n3c2oc2ccccc23)c1	21800	> 100	7.27	46.4	3.81	39.6	> 100000	> 100					
CC12CCCC(CC(=O)c3[nH]c4ccccc4c31)C2 (stereo not given)	2040	24.3	0.255	0.949	0.698	> 100	650	> 100					
